Converted amounts (≈) assume the structure as drawn.

Series [1] is described as follows: Solubility in PH 7.4 buffer by 1D 1H qNMR analysis. Format: physicochemical.
In series [2] the target is T1, Thiol:disulfide interchange protein DsbA (Escherichia coli (strain K12), UniProt P0AEG4).
T1 sequence (P0AEG4 whole entry): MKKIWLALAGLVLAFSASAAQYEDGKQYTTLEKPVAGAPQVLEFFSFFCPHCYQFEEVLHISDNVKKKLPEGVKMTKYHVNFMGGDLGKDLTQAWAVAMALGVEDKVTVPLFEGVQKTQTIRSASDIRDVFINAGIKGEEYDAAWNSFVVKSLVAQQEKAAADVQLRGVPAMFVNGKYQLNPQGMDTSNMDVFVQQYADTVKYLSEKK
Briefly: Binding affinity to uniformly labeled 15N oxidized Escherichia coli DsbA by 1H-15N HSQC NMR spectroscopy.

A word on the solubility: it is the concentration that dissolves in the medium under given conditions. Higher therefore signals much dissolved substance. For orientation: Kd means the constant that tells how readily two partners part at equilibrium. Regarding `Cc1cc(Oc2ccc(CC(=O)N3CCN(C)C(=O)C3)cc2)ccc1C#N`, the solubility in series [1] was determined as 1000 µM (≈ 363 µg/mL). The compound also registered a Kd in series [2] of 480 µM. In series [1], `Cc1cc(Oc2ccc(CC(=O)O)cc2)ccc1C#N` returned a solubility of 1000 µM (≈ 267 µg/mL). Turning to `CCN(CCn1cccn1)C(=O)Cc1ccc(Oc2ccc(C#N)c(C)c2)cc1`, in series [1], the solubility amounted to 250 µM (≈ 97.1 µg/mL). In series [2], this compound gave a Kd of 62 µM. `CC(=O)N1CCN(C(=O)Cc2ccc(Oc3ccc(C#N)c(C)c3)cc2)CC1` showed a solubility in series [1] of 1000 µM (≈ 377 µg/mL). Also, the Kd in series [2] was 430 µM.

Take `Cc1nc(CCN(C)C(=O)Cc2ccc(Oc3ccc(C#N)c(C)c3)cc2)no1`: the solubility in series [1] is 500 µM (≈ 195 µg/mL). This compound showed a Kd in series [2] of 230 µM.

Turning to `N#Cc1ccc(Oc2ccc(O)cc2)cc1`, in series [2], the Kd is more than 1000 µM. In the case of `Cc1cc(Oc2ccc(CC(=O)N3CCOCC3)cc2)ccc1C#N`, the concentration in solution in series [1] (solubility) came to 500 µM (≈ 168 µg/mL). This compound came in with a Kd in series [2] of 365 µM. For `Cc1cc(Oc2ccc(CC(=O)NCCN3CCCN(C)CC3)cc2)ccc1C#N`, the concentration in solution in series [1] (solubility) was 1000 µM (≈ 407 µg/mL). The Kd in series [2] turned out to be 1100 µM. In the same order, the values of `Cc1cc(Oc2ccc(CC(=O)N3CCOCC3C(=O)O)cc2)ccc1C#N` (racemic) are 1000 µM (≈ 380 µg/mL) and 290 µM.

The values above are taken from ChEMBL document CHEMBL4610121, “Rapid Elaboration of Fragments into Leads by X-ray Crystallographic Screening of Parallel Chemical Libraries (REFiLX)” (J Med Chem, 2020).
